Several values for one entry are separate records, joined by “and”; a condition that tells them apart may be missing. Equal entries are not always repeated.
Assays:
[1] = tested on: in vitro transcribed SARS-CoV-2 genes N1 and N2; format: biochemical
[2] = tested on: Bovine coronavirus; test: Virucidal activity test according to DIN EN 14476:2019-10, Bovine coronavirus; format: cell-based, Bovine coronavirus (Betacoronavirus 1); settings: for inactivation of Bovine coronavirus (in words): at the tested concentrations (Example 4); for Log10 reduction factor(s) incl. 95% confidence interval(s) against Bovine coronavirus: conc. 1% (DDAC 0.015%, Braunol povidone iodine 0.05%), initial results
Method: Analysis was performed by Henkel (Dusseldorf) according to the European norm DIN EN 14476:2019-10.
The following test for virucidal activity of the different test substances were performed by Henkel (Dusseldorf) according to the European norm DIN EN 14476:2019-10. The experimental conditions were identical to those in Example 3 but with a Bovine coronavirus instead of Vaccinia virus.

[3] = tested on: (RT-)PCR reaction; test: (RT-)PCR compatibility of test substance, reaction as a whole; format: biochemical
[4] = target: T1, Taq polymerase (Thermus aquaticus, UniProt P19821); test: (RT-)qPCR with test substance added, DNA template; format: biochemical; settings: for maximal non-inhibiting concentration, Taq polymerase: final concentration in (RT-)PCR, QuantiNova Pathogen Mix, 40 cycles, compared to water control (Examples 1, 2)
T1 construct: purchased QIAGEN (QuantiNova Pathogen + IC Kit; QIAprep& Viral RNA UM Kit)

[5] = tested on: DNA and/or RNA viruses; test: Virucidal suspension tests, summary statement; format: cell-based; settings: summary of the examples; against DNA and/or RNA viruses
[6] = tested on: N1 and N2 genes of SARS-CoV-2; format: biochemical
[7] = tested on: Vaccinia Virus, Elstree strain, ATCC VR1549; format: cell-based
[8] = tested on: reverse transcriptase (RT); test: (RT-)qPCR with test substance added, RT reaction (IC RNA template); format: biochemical; settings: for maximal non-inhibiting concentration, RT reaction: final concentration in (RT-)PCR, QuantiNova Pathogen Mix, 40 cycles, compared to water control (Examples 1, 2)
[9] = Example 8, FIG. 8, substance alone, increasing concentrations, QIAprep&amp reaction mix without Extraction Buffer step
[10] = Example 6, FIG. 6A, Tween20 at very high concentrations, Tween60 and Brij58 at much lower concentrations
[11] = Example 7, FIG. 7, without Tween20

T1 sequence (P19821 whole entry): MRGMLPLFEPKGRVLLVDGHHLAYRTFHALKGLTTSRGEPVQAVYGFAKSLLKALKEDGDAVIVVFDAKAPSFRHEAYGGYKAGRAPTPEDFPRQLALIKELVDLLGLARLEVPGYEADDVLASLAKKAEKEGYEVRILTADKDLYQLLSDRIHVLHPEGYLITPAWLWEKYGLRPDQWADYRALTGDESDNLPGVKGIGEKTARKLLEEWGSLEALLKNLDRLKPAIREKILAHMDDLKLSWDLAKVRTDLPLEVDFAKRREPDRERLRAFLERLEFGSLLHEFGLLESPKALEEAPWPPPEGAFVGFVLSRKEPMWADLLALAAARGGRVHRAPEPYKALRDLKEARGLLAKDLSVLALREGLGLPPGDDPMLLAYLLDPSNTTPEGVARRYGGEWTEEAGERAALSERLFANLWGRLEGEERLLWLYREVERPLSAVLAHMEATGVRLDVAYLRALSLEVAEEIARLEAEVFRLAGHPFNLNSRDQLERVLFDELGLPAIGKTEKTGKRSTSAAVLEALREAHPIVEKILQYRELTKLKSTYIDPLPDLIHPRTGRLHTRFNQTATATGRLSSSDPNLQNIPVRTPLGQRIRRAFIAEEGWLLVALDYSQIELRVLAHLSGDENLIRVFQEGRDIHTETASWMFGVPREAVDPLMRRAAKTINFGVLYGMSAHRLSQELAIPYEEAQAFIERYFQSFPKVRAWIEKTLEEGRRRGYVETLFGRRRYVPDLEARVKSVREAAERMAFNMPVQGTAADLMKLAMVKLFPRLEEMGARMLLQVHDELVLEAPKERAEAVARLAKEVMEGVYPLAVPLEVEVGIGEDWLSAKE

O=C(O)CCP(CCC(=O)O)CCC(=O)O [TCEP, Tris-(2-carboxyethyl)-phosphin]
concentration at which Ct-values increase again [1]: ≥ 2 mM
concentration that neutralizes the inhibitory effect of 0.5% povidone iodine in RT-PCR [1]: 5 mM
decrease of the Ct-value [1]: about 2

CCCCCCCCCC[N+](C)(C)CCCCCCCCCC.[Cl-] [DDAC, Didecyldimethylammonium chloride]
inactivation of Bovine coronavirus (in words) [2]: effectively inactivated
Log10 reduction factor(s) incl. 95% confidence interval(s) against Bovine coronavirus ([2]; contact time 15 min): >5.13 ± 0.25 Log10
Log10 reduction factor(s) incl. 95% confidence interval(s) against Bovine coronavirus ([2]; contact time 60 min): >4.88 ± 0.25 Log10
inhibition of the (RT-)PCR (in words) [3, 9]: significant inhibition
maximal non-inhibiting concentration, Taq polymerase [4]: ≤ 0.005%
reduction of the virus titer [5]: about 4 log10
inhibition of the (RT-)PCR by substance in transport/storage medium (in words) [6]: no inhibition
reduction of the virus titer [7]: 4 log10 grades
virucidal activity against Vaccinia virus (in words) [7]: strong virucidal activity
maximal non-inhibiting concentration, RT reaction [8]: ≤ 0.005%

polyoxyethylene(20) cetyl ether [Brij58]
inhibition of the (RT-)PCR (in words) [3, 10]: no PCR inhibition at all

CCCCCCCCCCCC[N+](C)(C)[O-] [LDAO, Lauryldimethylamin-N-oxide (N,N-Dimethyldodecylamine N-oxide)]
maximal non-inhibiting concentration, Taq polymerase [4]: 0.035%
inhibition of the RT reaction (in words) ([8]; LDAO at 0.035%, Ecosurf EH-9 at all tested concentrations (0.035-0.7%), compared to water control): slight but acceptable inhibition
maximal non-inhibiting concentration, RT reaction [8]: 0.035%

CCCCCCCCCCCC(=O)OCCOCCOCCOCCOCCOCCOCCOCCOCCOCCOCCOCCOCCOCCOCCOCCOCCOCCOCCOCCOCC(OCCOCCOCCOCCOCCOCCOCCOCCOCCOCCOCCOCCOCCOCCOCCOCCOCCOCCOCCOCCO)C1OCC(OCCOCCOCCOCCOCCOCCOCCOCCOCCOCCOCCOCCOCCOCCOCCOCCOCCOCCOCCOCCO)C1OCCOCCOCCOCCOCCOCCOCCOCCOCCOCCOCCOCCOCCOCCOCCOCCOCCOCCOCCOCCO (centres unmarked) [Tween20, polyoxyethylene (20) sorbitan monolaurate]
enzyme inhibition in (RT-)PCR (in words) ([3]; 0.7% final concentration in (RT-)PCR): some inhibition
inhibition of the (RT-)PCR (in words) [3, 10]: only a moderate inhibition
counteracting effect on SDS inhibition of the Taq polymerase (in words) ([4]; 3% and 5% Tween20 in the PCR, even at the highest concentrations of SDS tested): reactivates the activity
maximal non-inhibiting concentration, Taq polymerase [4]: ≤ 0.35%
log10 reduction factor(s) incl. 95% confidence interval(s) against Vaccinia Virus, Elstree strain, ATCC VR1549, with clean conditions [7]: 2.00 ± 0.54 log10 and 1.88 ± 0.41 log10
virucidal activity against Vaccinia virus (in words) [7]: least reduction of the virus titer
counteracting effect on SDS inhibition of the reverse transcription (in words) ([8]; 3% and 5% Tween20 in the PCR, depending on the Tween20 concentration): significantly reduced
maximal non-inhibiting concentration, RT reaction [8]: ≤ 0.35%

povidone iodine
inactivation of Bovine coronavirus (in words) [2]: effectively inactivated
Log10 reduction factor(s) incl. 95% confidence interval(s) against Bovine coronavirus ([2]; contact time 15 min): >6.13 ± 0.25 Log10
Log10 reduction factor(s) incl. 95% confidence interval(s) against Bovine coronavirus ([2]; contact time 60 min): >5.88 ± 0.25 Log10
maximal non-inhibiting concentration, Taq polymerase [4]: ≤ 0.0175%
reduction of the virus titer [5]: about 4 log10
reduction of the virus titer [7]: 4 log10 grades
virucidal activity against Vaccinia virus (in words) [7]: strong virucidal activity
inhibition of the (RT-)PCR (in words) [1]: significant inhibition
maximal non-inhibiting concentration, RT reaction [8]: ≤ 0.0175%

CCCCCCCCCCCCOS(=O)(=O)[O-].[Na+] [SDS, Sodium dodecyl sulfate]
inhibition of the (RT-)PCR (in words) [3, 9]: significant inhibition
concentration from which Ct-values increase, Taq polymerase [4, 11]: ≥ 0.125%
concentration from which Ct-values increase, reverse transcriptase [8, 11]: ≥ 0.03125%

polyoxyethylene (20) sorbitan monostearate [Tween60]
inhibition of the (RT-)PCR (in words) [3, 10]: no PCR inhibition at all

From patent US20230374575A1, “METHOD FOR VIRUS DETECTION” (priority 2020, published 2023)
